The test system of test [1] is human TLR7 mutant (dIRR2). Put plainly: TLR7 mutant (deletion in second leucine-rich repeat) NFκB-luc cellular reporter assay. The format is cell-based. The arrangement: unit not given here. The following applies: HEK293 NFκB-luc reporter, mutant TLR7, 6 hours incubation. On the procedure:
(§1) The ability of compounds to activate human TLR7 and/or TLR8 was assessed in a cellular reporter assay using HEK293 cells transiently transfected with a TLR7 or TLR8 expression vector and NFκB-luc reporter construct. In one instance the TLR expression construct expresses the respective wild type sequence or a mutant sequence comprising a deletion in the second leucine-rich repeat of the TLR.
(§2) Briefly, HEK293 cells were grown in culture medium (DMEM supplemented with 10% FCS and 2 mM Glutamine). For transfection of cells in 10 cm dishes, cells were detached with Trypsin-EDTA, transfected with a mix of CMV-TLR7 or TLR8 plasmid (750 ng), NFκB-luc plasmid (375 ng) and a transfection reagent and incubated 24 hours at 37° C. in a humidified 5% CO2 atmosphere. Transfected cells were then detached with Trypsin-EDTA, washed in PBS and resuspended in medium to a density of 1.67×10^5 cells/mL. Thirty microliters of cells were then dispensed into each well in 384-well plates, where 10 μL of compound in 4% DMSO was already present. Following 6 hours incubation at 37° C., 5% CO2, the luciferase activity was determined by adding 15 μl of Steady Lite Plus substrate (Perkin Elmer) to each well and readout performed on a ViewLux ultraHTS microplate imager (Perkin Elmer). Dose response curves were generated from measurements performed in quadruplicates. Lowest effective concentrations (LEC) values, defined as the concentration that induces an effect which is at least two fold above the standard deviation of the assay, were determined for each compound.

Test [2] has as its system human TLR8 mutant (dIRR2). Put plainly: TLR8 mutant (deletion in second leucine-rich repeat) NFκB-luc cellular reporter assay. It is filed as cell-based. On the set-up: unit not given here. The following applies: HEK293 NFκB-luc reporter, mutant TLR8, 6 hours incubation. How it is done:
as §1, §2

Test [3] relates to HCV replicon (Huh-7 luc/neo cells). Put plainly: Suppression of HCV replicon replication by conditioned media from PBMC. It is filed as cell-based, HCV type 1b. The following applies: Hepatitis C virus, compound concentration applied to PBMCs giving 50% reduction of replicon luciferase activity, read-out: PBMC-HUH7_EC50. How it is done:
Activation of human TLR7 results in robust production of interferon by plasmacytoid dendritic cells present in human blood. The potential of compounds to induce interferon was evaluated by looking at the antiviral activity in the HCV replicon system upon incubation with conditioned media from peripheral blood mononuclear cells (PBMC). The HCV replicon assay is based on a bicistronic expression construct, as described by Lohmann et al. (Science (1999) 285: 110-113; Journal of Virology (2003) 77: 3007-15 3019) with modifications described by Krieger et al. (Journal of Virology (2001) 75: 4614-4624). The assay utilized the stably transfected cell line Huh-7 luc/neo harboring an RNA encoding a bicistronic expression construct comprising the wild type NS3-NS5B regions of HCV type 1b translated from an Internal Ribosome Entry Site (IRES) from encephalomyocarditis virus (EMCV), preceded by a reporter gene (Firefly-luciferase) and a selectable marker gene (neoR, neomycine phosphotransferase). The construct is flanked by 5′ and 3′ NTRs (non-translated regions) from HCV type 1b. Continued culture of the replicon cells in the presence of G418 (neoR) is dependent on the replication of the HCV RNA. The stably transfected replicon cells that replicate HCV RNA autonomously and to high levels, encoding inter alia luciferase, were used for profiling of the conditioned cell culture media.
Briefly, PBMCs were prepared from buffy coats of at least two donors using a standard Ficoll centrifugation protocol. Isolated PBMCs were resuspended in RPMI medium supplemented with 10% human AB serum and 2×10^5 cells/well were dispensed into 384-well plates containing compounds (70 μL total volume). After overnight incubation, 10 μL of supernatant was transferred to 384-well plates containing 2.2×10^3 replicon cells/well in 30 μL (plated the day before). Following 24 hours of incubation, replication was measured by assaying luciferase activity using 40 μL/well Steady Lite Plus substrate (Perkin Elmer) and measured with ViewLux ultraHTS microplate imager (Perkin Elmer). The inhibitory activity of each compound on the Huh7-luc/neo cells were reported as EC50 values, defined as the compound concentration applied to the PBMCs resulting in a 50% reduction of luciferase activity which in turn indicates the degree of replication of the replicon RNA on transfer of a defined amount of PBMC culture medium. Recombinant interferon α-2a (Roferon-A) was used as a standard control compound.
(In antiviral work, replicon cells carry a viral genome segment that copies itself.)

Test [4] has as its target T1, human TLR8 (Homo sapiens, UniProt Q9NR97).
T1 construct: expressed in transfected cells; host or cells: HEK293
T1 sequence (Q9NR97 27-1041): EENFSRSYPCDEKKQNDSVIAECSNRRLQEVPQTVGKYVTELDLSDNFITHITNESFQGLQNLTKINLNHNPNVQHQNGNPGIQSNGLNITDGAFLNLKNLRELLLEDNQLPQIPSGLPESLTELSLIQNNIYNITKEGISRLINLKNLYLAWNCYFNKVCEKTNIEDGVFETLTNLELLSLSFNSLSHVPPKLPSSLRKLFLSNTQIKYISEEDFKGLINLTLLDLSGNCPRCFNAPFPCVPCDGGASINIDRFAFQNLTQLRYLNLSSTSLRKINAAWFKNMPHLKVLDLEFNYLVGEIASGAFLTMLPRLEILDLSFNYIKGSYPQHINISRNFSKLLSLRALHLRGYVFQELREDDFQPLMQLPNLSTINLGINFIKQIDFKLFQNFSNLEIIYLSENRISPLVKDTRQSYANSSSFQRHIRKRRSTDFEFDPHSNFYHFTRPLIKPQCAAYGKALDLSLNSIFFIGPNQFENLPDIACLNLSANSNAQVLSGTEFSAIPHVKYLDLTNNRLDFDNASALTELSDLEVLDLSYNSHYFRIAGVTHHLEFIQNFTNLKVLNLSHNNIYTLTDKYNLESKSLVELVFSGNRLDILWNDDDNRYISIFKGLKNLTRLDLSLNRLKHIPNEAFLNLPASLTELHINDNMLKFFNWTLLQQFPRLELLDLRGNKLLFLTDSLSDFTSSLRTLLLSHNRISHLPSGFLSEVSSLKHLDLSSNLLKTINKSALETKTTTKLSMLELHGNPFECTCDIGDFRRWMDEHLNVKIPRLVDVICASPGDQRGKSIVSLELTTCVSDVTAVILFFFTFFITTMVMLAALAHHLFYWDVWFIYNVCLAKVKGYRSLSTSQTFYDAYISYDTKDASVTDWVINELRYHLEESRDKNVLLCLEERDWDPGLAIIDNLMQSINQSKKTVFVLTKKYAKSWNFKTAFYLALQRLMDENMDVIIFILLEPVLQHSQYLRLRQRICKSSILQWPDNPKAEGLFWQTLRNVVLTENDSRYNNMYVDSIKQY
Put plainly: TLR8 wild type NFκB-luc cellular reporter assay. To be noted: HEK293 NFκB-luc reporter, 6 hours incubation; for TLR8-wt (LEC): second part of table. It is filed as cell-based. The arrangement: unit not given here. On the procedure:
as §1, §2
(In a reporter assay the amount or activity of a reporter protein is the signal.)

Test [5] concerns the target T2, human TLR7 (Homo sapiens, UniProt Q9NYK1).
T2 construct: expressed in transfected cells; host or cells: HEK293
T2 sequence (Q9NYK1 27-1049): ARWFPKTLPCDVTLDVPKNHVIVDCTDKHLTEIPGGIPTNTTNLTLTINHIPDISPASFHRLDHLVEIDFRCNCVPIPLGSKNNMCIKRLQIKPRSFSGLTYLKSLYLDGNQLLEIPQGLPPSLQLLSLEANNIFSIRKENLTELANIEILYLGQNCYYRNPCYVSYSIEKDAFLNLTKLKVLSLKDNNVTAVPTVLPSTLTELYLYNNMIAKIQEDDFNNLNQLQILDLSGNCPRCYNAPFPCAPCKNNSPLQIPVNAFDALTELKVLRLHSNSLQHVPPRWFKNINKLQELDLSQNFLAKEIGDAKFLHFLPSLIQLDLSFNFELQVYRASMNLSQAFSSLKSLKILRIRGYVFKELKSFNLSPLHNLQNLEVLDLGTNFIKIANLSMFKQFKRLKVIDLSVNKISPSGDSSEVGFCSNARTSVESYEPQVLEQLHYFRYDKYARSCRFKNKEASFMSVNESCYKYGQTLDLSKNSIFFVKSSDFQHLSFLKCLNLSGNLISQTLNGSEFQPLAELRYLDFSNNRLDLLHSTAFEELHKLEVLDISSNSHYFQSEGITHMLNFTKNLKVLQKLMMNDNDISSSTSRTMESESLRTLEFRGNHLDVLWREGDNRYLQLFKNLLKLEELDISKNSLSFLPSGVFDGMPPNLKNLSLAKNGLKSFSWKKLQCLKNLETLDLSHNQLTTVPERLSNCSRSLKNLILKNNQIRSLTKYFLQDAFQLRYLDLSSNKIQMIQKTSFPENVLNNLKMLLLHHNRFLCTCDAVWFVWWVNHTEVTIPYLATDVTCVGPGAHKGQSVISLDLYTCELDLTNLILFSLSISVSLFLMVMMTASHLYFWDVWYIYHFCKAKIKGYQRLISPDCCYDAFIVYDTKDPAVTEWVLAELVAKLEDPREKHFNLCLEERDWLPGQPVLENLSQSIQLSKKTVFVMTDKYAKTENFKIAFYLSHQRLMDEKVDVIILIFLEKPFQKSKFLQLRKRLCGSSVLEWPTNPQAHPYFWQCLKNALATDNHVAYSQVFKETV
Put plainly: TLR7 wild type NFκB-luc cellular reporter assay. The format is cell-based. The arrangement: unit not given here. To be noted: HEK293 NFκB-luc reporter, 6 hours incubation; for TLR7-wt (LEC): second part of table. On the procedure:
as §1
as §2, with “Following 6 hours incubation at 37° C., 5% CO2, the luciferase activity was determined by adding 15 μl of Steady Lite Plus substrate (Perkin Elmer) to each well and readout performed on a ViewLux ultraHTS microplate imager (Perkin Elmer).” left out

Some results are limits rather than exact numbers.

For `CCCCCNc1nc(N)nc2cc(OC)c(OC)cc12` [Compound 2], in test [1], the TLR7-dIRR2_LEC turned out to be 1.2. This compound came in with a TLR8-dIRR2_LEC in test [2] of 0.6. The EC50 in test [3] was determined as 4.4 µM. The same compound yielded a TLR8-wt_LEC in test [4] of 1.5.
`CCCCNc1nc(N)nc2ccccc12` [Compound 8]: the TLR7-dIRR2_LEC in test [1] came to 0.02. In test [2], this compound came in with a TLR8-dIRR2_LEC of 0.02. The compound further came in with a TLR7-wt_LEC in test [5] (lowest effective concentration) of 0.1. This compound also registered a TLR8-wt_LEC in test [4] of 0.1.
As for `CCCCNc1nc(N)nc2cccc(CCc3ccccn3)c12` [Compound 12], the “TLR7-wt (LEC)” value in test [5] worked out at 1.66. Besides, in test [4], the “TLR8-wt (LEC)” value was found to be 0.79.
For the compound `CCCCNc1nc(N)nc2ccc(C#CC(C)O)cc12` (centres unmarked) [Compound 14], the “TLR7-wt (LEC)” value in test [5] worked out at 0.65. Besides, the “TLR8-wt (LEC)” value in test [4] was determined as 4.77.
As to `CCCCNC(=O)c1cccc2nc(N)nc(NCCCC)c12` [Compound 15], in test [5], the “TLR7-wt (LEC)” value is reported as 0.49. For the same compound, in test [4], the “TLR8-wt (LEC)” value turned out to be 3.27.
The like results for `CCCCNc1nc(N)nc2ccc(CCC(C)O)cc12` (centres unmarked) [Compound 16] were, in that order, 0.57 and 0.73.
The matching figures for `CCCCNc1nc(N)nc2ccc(C#N)cc12` [Compound 19]: over 25 and 7.05.
`CCCCNc1nc(N)nc2ccc(-c3cnn(C)c3)cc12` [Compound 20]: the “TLR7-wt (LEC)” value in test [5] is over 25. Also, in test [4], the “TLR8-wt (LEC)” value is reported as 2.55.
With `CCCCNc1nc(N)nc2ccc(C(C)=O)cc12` [Compound 22], the “TLR7-wt (LEC)” value in test [5] is 6.07. Moreover, the “TLR8-wt (LEC)” value in test [4] was 1.95.
For the compound `CCCCNc1nc(N)nc2ccc(C(C)O)cc12` (centres unmarked) [Compound 23], in test [5], the “TLR7-wt (LEC)” value is 10.23. Besides, in test [4], the “TLR8-wt (LEC)” value came out at 5.05.
With `CCCCNc1nc(N)nc2cc(C(=O)Nc3cccnc3)ccc12` [Compound 90], the “TLR7-wt (LEC)” value in test [5] amounted to 0.42.
For `CCCCNc1nc(N)nc2cc(C(=O)N3CCOCC3)ccc12` [Compound 91], the “TLR7-wt (LEC)” value in test [5] was 0.13. The “TLR8-wt (LEC)” value in test [4] is 0.53.
Turning to `CCCCNc1nc(N)nc2cc(C(=O)NCCN(C)C)ccc12` [Compound 92], the “TLR7-wt (LEC)” value in test [5] is reported as 1.53. In addition, the “TLR8-wt (LEC)” value in test [4] stood at 5.87.
The matching figures for `CCCCNc1nc(N)nc2cc(C(=O)NCc3ccccn3)ccc12` [Compound 93]: 0.77 and 1.69.
The like results for `CCCCNc1nc(N)nc2cc(C(=O)N(C)C)ccc12` [Compound 94] were, in that order, 0.07 and 0.48.
The like results for `CCCCNc1nc(N)nc2cc(C(=O)NCc3ccccc3)ccc12` [Compound 95] were, in that order, 0.54 and 0.42.
As to `CCCCNc1nc(N)nc2cccc(CCc3ccc(OC)cc3)c12` [Compound 96], the “TLR7-wt (LEC)” value in test [5] was determined as 2.7. Moreover, the “TLR8-wt (LEC)” value in test [4] amounted to 16.
The matching figures for `CCCCNc1nc(N)nc2cccc(CCc3cccc(OC)c3)c12` [Compound 97]: 0.6 and 0.83.
The like results for `CCCCNc1nc(N)nc2cccc(OCC(=O)OC)c12` [Compound 98] were, in that order, 0.21 and 0.31.

The values above are taken from patent US8916575B2, “Quinazoline derivatives for the treatment of viral infections and further diseases” (Janssen R&D Ireland, priority 2011, dated 2014).
